Reference: US8936930B2, “Red microalgae expressing exogenous polypeptides and methods of generating and utilizing same” (priority 2004, dated 2015)

Test system: Porphyridium sp.
Test: Antibiotic sensitivities of Porphyridium sp. (growth in ASW supplemented with antibiotic)
Assay type: cell-based, Porphyridium sp. (UTEX 637)
Design: key to Growth: ++: no inhibition of growth rate; +: slight inhibition of growth rate; −: no growth
Details: for Growth: Porphyridium sp. in ASW
Protocol: Porphyridium sp. (UTEX 637, from the culture collection of algae at the University of Texas at Austin) cells were cultured in artificial seawater (ASW; Jones et al. Plant Physiol. 16:636-643, 1963) supplemented with different antibiotic compounds for evaluating antibiotic sensitivities.

Compound: O=C(N[C@H](CO)[C@H](O)c1ccc([N+](=O)[O-])cc1)C(Cl)Cl [Chloramphenicol]
- Growth (200 μg/ml): +
- Growth (500 μg/ml): −

Compound: C[C@@H]1C[C@@H]([C@H](O)CC2CC(=O)NC(=O)C2)C(=O)[C@@H](C)C1 [Cyclohexhimide]
- Growth (5 μM): −

Compound: CN[C@@H]1[C@@H](O)[C@@H](O[C@@H]2[C@@H](O)[C@H](O[C@H]3O[C@H]([C@@H](C)O)[C@@H](O)[C@H](O)[C@H]3N)[C@@H](N)C[C@H]2N)OC[C@]1(C)O [G418]
- Growth (2 μg/ml): +

Compound: NC[C@H]1O[C@H](O[C@H]2[C@H](O)[C@@H](O[C@H]3O[C@H](CO)[C@@H](O)[C@H](N)[C@H]3O)[C@H](N)C[C@@H]2N)[C@H](O)[C@@H](O)[C@@H]1O [Kanamycin]
- Growth (700 μg/ml): ++

Compound: CCC[C@@H]1C[C@@H](C(=O)N[C@@H]([C@H]2O[C@H](SC)[C@H](O)[C@@H](O)[C@H]2O)[C@@H](C)O)N(C)C1 [Lincomycin]
- Growth (300 μg/ml): ++

Compound: CN(Cc1cnc2nc(N)nc(N)c2n1)c1ccc(C(=O)N[C@@H](CCC(=O)O)C(=O)O)cc1 [Methotrexate]
- Growth (80 μg/ml): ++

Compound: NC[C@@H]1O[C@H](O[C@H]2[C@@H](O)[C@H](O[C@@H]3[C@@H](O)[C@H](N)C[C@H](N)[C@H]3O[C@H]3O[C@H](CO)[C@@H](O)[C@H](O)[C@H]3N)O[C@@H]2CO)[C@H](N)[C@@H](O)[C@@H]1O [Paramomycin]
- Growth (200 μg/ml): ++

Compound: CN[C@@H]1[C@H](O)[C@H](NC)[C@H]2O[C@@]3(O)C(=O)C[C@@H](C)O[C@H]3O[C@@H]2[C@H]1O [Spectinomycin]
- Growth (300 μg/ml): ++

Compound: Cc1c(N)nc([C@H](CC(N)=O)NC[C@H](N)C(N)=O)nc1C(=O)N[C@H](C(=O)N[C@H](C)[C@@H](O)[C@H](C)C(=O)N[C@H](C(=O)NCCC1=N[C@@H](c2nc(C(=O)NCCCCN=C(N)N)cs2)CS1)[C@@H](C)O)[C@@H](O[C@@H]1O[C@@H](CO)[C@@H](O)[C@H](O)[C@@H]1O[C@H]1O[C@H](CO)[C@@H](O)[C@H](OC(N)=O)[C@@H]1O)c1cnc[nH]1 [Zeocin]
- Growth of untransformed (wild-type) Porphyridium sp. (in words) (zeocin 4 μg/ml, 17 days incubation in ASW medium): no growth
- Growth of wild type Porphyridium sp. (in words) (zeocin 10 μg/ml): no growth
- Growth of Porphyridium sp. (in words) (zeocin 4-8 μg/ml): no growth

Compound: Neomycin
- Growth (150 μg/ml): ++

Compound: Phleomycin
- Growth (10 μg/ml): ++
